One test has as its system MG-63 (osteosarcoma). As to the kind of experiment: MTT cytotoxicity assay, MG-63. The test is classed as cell-based. To be noted: 72 h, mean, SD in next cell. The protocol: (§1) The human epithelial ovarian cancer A2780 cell line and its cisplatin-resistant clone A2780cis were obtained from Sigma-Aldrich (Milano, Italy). A2780cis cells were continuously exposed to 1 μM cisplatin to maintain cisplatin resistance. A549 cells (Human non-small cell lung cancer), MCF7 (metastatic breast cancer), PC3 (highly aggressive metastatic prostate cancer), and MG63 (osteosarcoma) were obtained from the American Type Culture Collection (ATCC). Cells were authenticated in laboratory using the PowerPlex 16 HS System. A2780, A2780cis, and PC3 cells were cultured in RPMI-1640 medium; MG63 and MCF7 cells were cultured in DMEM, and A549 cells were cultured in F12 NUT-MIX. The culture medium contained about 10% fetal bovine serum (FBS) (Gibco, Thermo Fisher Scientific, Monza, Italy), about 1% (v/v) of penicillin (10,000 units/mL)-streptomycin (10 mg/mL), and about 1% (v/v) L-glutamine (200 mM) (all from Sigma-Aldrich). Cells were cultured at 37° C. in a 5% CO2, fully humidified atmosphere.
2.5×10^3 (PC3, MG63, MCF7) or 4.0×10^3 (A2780, A2780cis, A549) cells were seeded in 96-well microplates in 100 μL culture medium. Cells, allowed to adhere for 24 h, were then treated in triplicate with increasing concentrations of gold compounds. Cisplatin was included as a reference drug. Cell viability was evaluated using 3-(4,5-dimethylthiazol-2-yl)-2,5-diphenyltetrazolium bromide (MTT) assay (Sigma-Aldrich) after 72 h of treatment. Half maximal inhibitory concentrations (IC50), IC25, and IC75 were calculated using the CalcuSyn software version 2 (Biosoft, Ferguson, MO, USA) (See: Chou, T. C.; Talalay, P. Quantitative Analysis of Dose-Effect Relationships: The Combined Effects of Multiple Drugs or Enzyme Inhibitors. Adv. Enzyme Regul. 1984, 22, 27-55, which is incorporated herein by reference in its entirety). Fold resistance was calculated as the ratio of the IC50 of the A2780cis to that of the parental cell line A2780. […]

In test [1] the test system is A2780 ovarian cancer cells. As to the kind of experiment: MTT cytotoxicity assay, A2780. In kind it is cell-based, human. To be noted: 72 h, mean (SD). The protocol: as §1
(§2) 2.5×10^3 (PC3, MG63, MCF7) or 4.0×10^3 (A2780, A2780cis, A549) cells were seeded in 96-well microplates in 100 μL culture medium. Cells, allowed to adhere for 24 h, were then treated in triplicate with increasing concentrations of gold compounds. Cisplatin was included as a reference drug. Cell viability was evaluated using 3-(4,5-dimethylthiazol-2-yl)-2,5-diphenyltetrazolium bromide (MTT) assay (Sigma-Aldrich) after 72 h of treatment. Half maximal inhibitory concentrations (IC50), IC25, and IC75 were calculated using the CalcuSyn software version 2 (Biosoft, Ferguson, MO, USA) (See: Chou, T. C.; Talalay, P. Quantitative Analysis of Dose-Effect Relationships: The Combined Effects of Multiple Drugs or Enzyme Inhibitors. Adv. Enzyme Regul. 1984, 22, 27-55, which is incorporated herein by reference in its entirety). Fold resistance was calculated as the ratio of the IC50 of the A2780cis to that of the parental cell line A2780. Alternatively, cell viability was assayed by crystal violet staining (See: Feoktistova, M.; Geserick, P.; Leverkus, M. Crystal Violet Assay for Determining Viability of Cultured Cells. Cold Spring Harb Protoc 2016, 2016, pdb.prot087379, which is incorporated herein by reference in its entirety). Alternatively, after drug treatment, the culture Medium was removed, cells washed, fixed, and stained, and the Crystal Violet solution lasted 20 minutes (See: Sulaiman, A. A. A.; Casagrande, N.; Borghese, C.; Corona, G.; Isab, A. A.; Ahmad, S.; Aldinucci, D.; Altaf M. Design, Synthesis, and Preclinical Activity in Ovarian Cancer Models of New Phosphanegold(I)—N-Heterocyclic Carbene Complexes. J Med Chem 2022, 65, 14424-14440, which is incorporated herein by reference in its entirety).

Test [2] relates to A2780cis (cisplatin-resistant clone of A2780). The test is described as follows: MTT cytotoxicity assay, A2780cis. In kind it is cell-based, human. The protocol: as §1, §2
A further test has as its system Bcl-2. The test is described as follows: Bcl-2 expression, flow cytometry. In kind it is cell-based, human. To be noted: A549, 72 h. As to the method:
(§3) 2.0×10^5 A549 cells were seeded in 6-well plates in a complete medium and treated with the complex 3. Assay results were detected by flow cytometry on a BD FACSCanto II flow cytometer. Data were analyzed using BD FACSDiva v.8.0.1 software (BD Biosciences) unless otherwise indicated. Tumor cells were treated for 72 h with complex 3, then stained for 15 minutes with FITC Annexin-V (Thermo Fisher Scientific) and 7AAD (BD Pharmingen, Milan, Italy). Activated caspase-3,7 was detected using the CaspaTag Caspase-3,7 assay (Merck Millipore) after an incubation of 24 h with complex 3. For B-cell lymphoma/leukemia-2 protein (Bcl-2) and Bcl-2 associated x protein (Bax) analysis, cells were treated for 72 h with C3, then fixed and permeabilized (FIX & PERM Cell Fixation & Cell Permeabilization Kit, Life Technologies). […] The distribution of cells in different cell cycle phases was quantified using ModFit LT 4.0 software (Verity Software House, Topsham, ME, USA) (See: Sulaiman, A. A. A.; Casagrande, N.; Borghese, C.; Corona, G.; Isab, A. A.; Ahmad, S.; Aldinucci, D.; Altaf M. Design, Synthesis, and Preclinical Activity in Ovarian Cancer Models of New Phosphanegold(I)—N-Heterocyclic Carbene Complexes. J Med Chem 2022, 65, 14424-14440, which is incorporated herein by reference in its entirety). […]

Another test relates to A549 cells. As to the kind of experiment: Mitochondrial ROS generation (MitoSOX Red). The test is classed as cell-based, human. Conditions: A549, 48 h. The protocol:
as §3

In the next test the test system is TrxR. As to the kind of experiment: Thioredoxin reductase activity in treated cell lysates. The test is classed as cell-based, human. To be noted: A549 cells treated 24 h. As to the method: Cells were treated with complex 3 (24 h) and then lysed in 50 mM Tris-HCl pH 7.6, 0.1% Triton X-100, 0.9% NaCl to obtain the TrxR activity. TrxR (EC 1.8.1.9) was assayed using the Thioredoxin Reductase Assay Kit (Sigma-Aldrich). Enzyme activity was determined by reading the absorbance at 412 nm using a spectrophotometer (Biomate 3 Thermo Spectronic, Thermo Electronic Corporation, Monza, Italy) and normalized to the protein concentration, determined with the Bio-Rad protein assay (Protein Assay Dye Reagent Concentrate, Bio-Rad Laboratories, Segrate, Italy).

For `CC(C)c1cccc(C(C)C)c1-n1ccn(-c2c(C(C)C)cccc2C(C)C)[c]1=[Au-][P+](CCNCC[P+]([Au-]=[c]1n(-c2c(C(C)C)cccc2C(C)C)ccn1-c1c(C(C)C)cccc1C(C)C)(C1CCCCC1)C1CCCCC1)(C1CCCCC1)C1CCCCC1` [Complex 3, [(Au(IPr))2(C28H24P2)](PF6)2], the half-inhibitory concentration (IC50) in the test with MG-63 (osteosarcoma) came to 160 nM; in test [1], 110 nM; in test [2] (MTT, 72 h, mean, SD in next cell), 240 nM. The “Fold resistance (A2780cis/A2780)” value in test [2] (IC50 A2780cis/IC50 A2780) is on record as 2.19. Also, the “anti-apoptotic BCL-2 expression” value with Bcl-2 is “down-regulated”. The “mitochondrial reactive oxygen species (mit-ROS)” value in the test with A549 cells is “increased”. The TrxR enzymatic activity result in the test with TrxR is “not modified”.
